From ChEMBL document CHEMBL1157288, “Isolation and structure assignment of an iminotetrasaccharide from a cultured filamentous cyanobacterium Anabaena sp” (J Nat Prod, 2006)

Tested on: Escherichia coli
Assay: Inhibition of Escherichia coli beta-glucuronidase at 560 uM

CO[C@@H]1[C@@H](O)[C@@H](O[C@@H]2[C@@H]([C@H](C)O)NC[C@@H]2O)O[C@H](CO)[C@H]1O[C@H]1OC[C@H](OC(C)=O)[C@H](OC(C)=O)[C@H]1O[C@H]1O[C@H](C(=O)O)[C@@H](O)[C@H](O)[C@H]1O
inhibition: 50%
